Data as given in patent publication US12570638B2, “Fused imidazole derivatives as AHR antagonists” (Sail Biomedicines, Inc., priority 2020, dated 2026).

Target: T1, AHR (Homo sapiens, UniProt P35869)
T1 construct: other cell line with a DRE-luciferase reporter stably transfected; endogenous in cells; host or cells: Human HepG2 liver carcinoma AhR-Lucia reporter cells
T1 sequence (P35869 11-848): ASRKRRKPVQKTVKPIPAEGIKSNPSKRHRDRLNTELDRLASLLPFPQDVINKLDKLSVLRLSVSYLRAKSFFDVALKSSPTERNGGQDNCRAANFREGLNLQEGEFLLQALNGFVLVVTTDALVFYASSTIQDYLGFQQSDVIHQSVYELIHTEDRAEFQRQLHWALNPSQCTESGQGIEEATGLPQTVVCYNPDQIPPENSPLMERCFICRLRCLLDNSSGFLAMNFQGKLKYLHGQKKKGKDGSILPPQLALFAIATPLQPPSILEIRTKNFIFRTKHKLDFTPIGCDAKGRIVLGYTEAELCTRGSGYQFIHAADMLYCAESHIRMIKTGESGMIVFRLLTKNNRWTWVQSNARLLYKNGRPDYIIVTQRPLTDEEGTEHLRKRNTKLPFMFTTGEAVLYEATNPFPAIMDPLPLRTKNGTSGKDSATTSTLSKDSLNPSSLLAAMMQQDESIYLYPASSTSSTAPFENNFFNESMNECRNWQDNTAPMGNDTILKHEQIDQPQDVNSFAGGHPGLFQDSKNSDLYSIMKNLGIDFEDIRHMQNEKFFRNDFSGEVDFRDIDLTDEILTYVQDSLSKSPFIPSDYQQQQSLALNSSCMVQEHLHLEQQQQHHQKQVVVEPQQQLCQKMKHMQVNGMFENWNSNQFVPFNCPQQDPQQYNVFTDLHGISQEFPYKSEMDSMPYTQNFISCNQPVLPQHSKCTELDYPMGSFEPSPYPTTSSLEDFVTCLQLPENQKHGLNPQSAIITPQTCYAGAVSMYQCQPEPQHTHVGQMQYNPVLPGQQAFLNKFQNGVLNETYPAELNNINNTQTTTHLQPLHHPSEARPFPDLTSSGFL
Assay: DRE-Luciferase Reporter Assay (HepG2 AhR-Lucia reporter cells)
Type: cell-based
Details: luciferase activity with AHR activating ligand at EC50, read-out: HepG2-Luc IC50
Description: AHR binds to Dioxin Responsive Elements (DRE) upstream of genes that it activates. One measure of AHR activity is activation of a reporter gene, such as luciferase, downstream of one or multiple DRE elements. Luciferase activity will reflect activation and inhibition of AHR in the cells expressing his reporter. 20000 Human HepG2 liver carcinoma—AhR-Lucia reporter cells or Human HT29 colon adenocarcinoma—AhR reporter cells or other cell line with a DRE-luciferase reporter stably transfected were plated in Eagle's Minimal Essential Medium, 10% heat-inactivated FBS, 1× non-essential amino acids Pen-Strep (10,000 U/mL) and Normocin (100 ug/mL) in plates (96-well, 384-well or other plates) and incubated overnight at 37° C. in a CO2 incubator and treated with and without AhR antagonists at a log dilution starting at 100 uM.
After 1 hr that cells were plated an AHR activating ligand, such as TCDD, kynurenine, ITE (2-(1H-indole-3-ylcarbonyl)-4-thiazolecarboxylic methyl ester), VAF347, BNF (beta-naphthoflavone), FICZ (6-formylindolo(3,2-b) carbazole) or other AHR ligands at their specific EC50 concentration, were added to the cells with or without AHR antagonist.
Cells were incubated for 24 or 48 hours or another time point and then, supernatant was analyzed for determination of luciferase activity as a read-out of the AHR activation or inhibition. Luciferase was measured with the commercial kit QUANTI-Luc™ assay solution kit from Invivogen following the manufacturer's instructions.
The level of luciferase with only agonist ligand added was the maximum signal while the luciferase with […] was the minimum signal. IC50 values were determined as the concentration which inhibits half of the luciferase activity.

An IC50 of 100 to 500 nM was found for `Cn1nccc1C(=O)Nc1ccc2nc(-c3ccccc3C(F)(F)F)[nH]c2c1` [A, 1-methyl-N-(2-(2-(trifluoromethyl)phenyl)-1H-benzo[d]imidazol-6-yl)-1H-pyrazole-5-carboxamide] in this work.

An IC50 of under 100 nM was found for `Cn1ncnc1C(=O)Nc1ccc2nc(-c3ccccc3C(F)(F)F)[nH]c2c1` [Compound H, 1-methyl-N-(2-(2-(trifluoromethyl)phenyl)-1H-benzo[d]imidazol-6-yl)-1H-1,2,4-triazole-5-carboxamide] in this work.
